What all share (type): in vivo
In series [1] the test system is beet. Description: Test Example 5: effect on crop by foliage application, plastic box (symbol f). The conditions noted are these: 320 g/ha, 3 weeks after application. In outline:
(§1)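 Greenhouse test at 25° C. to 30° C. Seeds of crops and weeds were spot-sown in boxes of sterilized diluvial soil under roughly 1.5 cm soil cover, then grown for foliage treatment.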

Series [2] relates to directly sowed rice plant. Description: Test Example 3: effect on crop by foliage application, Wagner pot (symbol b). The conditions noted are these: application herbicide amount 320 g/ha; for b (directly sowed rice plant) effect on crop grade: Table 24. The procedure, abridged: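 Steps: fill a 1/10000-are Wagner pot with alluvial soil; add water and mix to submerge at 0.1–0.5 cm depth; sow rice plus Echinochloa crus-galli var. crus-galli, Leptochloa chinensis and Cyperus difformis; grow in a 25–30 °C greenhouse.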

Series [3] concerns wheat. Description: Test Example 5: effect on crop by foliage application, plastic box (symbol e). The settings on record: 320 g/ha, 3 weeks after application. In outline:
as §1

In series [4] the test system is Galium spurium. In words: Test Example 5: herbicidal effect by foliage application, plastic box (symbol Q). The settings on record: 320 g/ha, 3 weeks after application. The procedure, abridged:
(§2)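 Sowing in sterilized diluvial soil, 14 days' greenhouse growth at 25° C. to 30° C., then uniform small-sprayer foliar application of aqueous emulsion dilution; plants scored three weeks afterwards.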

Series [5] has as its system Leptochloa chinensis. Description: Test Example 3: herbicidal effect by foliage application, Wagner pot (symbol D). The conditions noted are these: application herbicide amount 320 g/ha; for D (Leptochloa chinensis) herbicidal effect grade: Table 24. The procedure, abridged: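 Foliar spray of a water-diluted emulsion at a predetermined herbicide amount, applied to 14-day-old plants. Seedlings were raised in flooded alluvial soil (0.1–0.5 cm water) at 25–30 °C in a greenhouse. Injury was rated after 3 weeks against fixed criteria.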

Series [6] has as its system rapeseed. In words: Test Example 4: effect on crop by soil treatment (symbol g). In outline: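 Greenhouse culture at 25° C. to 30° C. followed sowing of seed in spots on sterilized diluvial soil with a soil cover close to 1.5 cm thick.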
The subject of series [7] is Amaranthus retroflexus. In words: Test Example 4: herbicidal effect by soil treatment (symbol N). The procedure, abridged:
(§3)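 Seeds were sown in sterilized diluvial soil, covered with about 1.5 cm of soil, and the soil surface was sprayed with a water-diluted emulsion of the compound at a predetermined rate. Plants grew in a greenhouse at 25° C. to 30° C.; effects were scored visually 3 weeks after application.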

In series [8] the test system is Monochoria vaginalis. Description: Test Example 1: herbicidal activity, application before weed generation in submerged conditions (symbol C). The settings on record: application herbicide amount 320 g/ha. In outline: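 Scores run 0 to 5 by herbicidal ratio, with 5 meaning 90% or more and 0 meaning 5% or lower, read 3 weeks after treatment. Compound was applied as a diluted emulsion to the water surface of submerged alluvial-soil pots on the day weed seeds were sown.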

Series [9] has as its system Abutilon theophrasti. Description: Test Example 4: herbicidal effect by soil treatment (symbol M). In outline: as §3
Series [10] concerns Apera spica-venti. In words: Test Example 5: herbicidal effect by foliage application, plastic box (symbol L). The conditions noted are these: 320 g/ha, 3 weeks after application. The procedure, abridged:
as §2

The subject of series [11] is Digitaria ciliaris. Description: Test Example 4: herbicidal effect by soil treatment (symbol F). The procedure, abridged:
as §3

Series [12] deals with corn. Description: Test Example 5: effect on crop by foliage application, plastic box (symbol c). The conditions noted are these: 320 g/ha, 3 weeks after application. The procedure, abridged:
as §1

The subject of series [13] is transplanted rice plant. Description: Test Example 1: effect on crop, application before weed generation in submerged conditions (symbol a). The conditions noted are these: application herbicide amount 320 g/ha. In outline: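 Alluvial soil pots flooded to 4 cm water, sown with Echinochloa oryzacola, Scirpus juncoides and Monochoria vaginalis, then transplanted with 2.5 leaf stage rice seedlings; pre-emergence application. Greenhouse 25° C. to 30° C.; scored 0–5 by herbicidal ratio 3 weeks after application.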

The mark [14] stands for this setting: application herbicide amount 320 g/ha.

As for `CCC(Oc1ccc2ncc(Br)cc2c1)C(=O)OC1=C(c2c(C)cc(C)cc2C)C(=O)C(CC(C)=NOC)C1` (centres unmarked) [1-140], the “f: beet, effect on crop (criteria 0-5)” value in [1] was 3 (Herbicidal ratio of 40% or higher and lower than 70%). The “effect on crop b (directly sowed rice plant), grade 0-5” value in series [2] is 5 (Herbicidal ratio of 90% or more (almost completely withered)). In [3], the “e: wheat, effect on crop (criteria 0-5)” value is on record as 5 (Herbicidal ratio of 90% or more (almost completely withered)). The “Q: Galium spurium, herbicidal effect (criteria 0-5)” value in [4] was 2 (Herbicidal ratio of 20% or higher and lower than 40%). Moreover, in [5], the “herbicidal effect on D (Leptochloa chinensis), grade 0-5” value is 5 (Herbicidal ratio of 90% or more (almost completely withered)). Moreover, the “g: rapeseed, effect grade on crop” value in [6] (320 g/ha) is 4 (Herbicidal ratio of 70% or higher and lower than 90%). The “N: Amaranthus retroflexus, herbicidal effect grade” value in [7] (320 g/ha) is given as 5 (Herbicidal ratio of 90% or more (almost completely withered)). The “Herbicidal effect grade, C: Monochoria vaginalis” value in [8] is 1 (Herbicidal ratio of 5% or higher and lower than 20%). The “M: Abutilon theophrasti, herbicidal effect grade” value in series [9] (320 g/ha) was 5 (Herbicidal ratio of 90% or more (almost completely withered)). Moreover, the “L: Apera spica-venti, herbicidal effect (criteria 0-5)” value in [10] is 5 (Herbicidal ratio of 90% or more (almost completely withered)). For the same compound, the “F: Digitaria ciliaris, herbicidal effect grade” value in [11] (320 g/ha) is listed as 5 (Herbicidal ratio of 90% or more (almost completely withered)). Also, the “c: corn, effect on crop (criteria 0-5)” value in series [12] was 4 (Herbicidal ratio of 70% or higher and lower than 90%). For the same compound, the “Effect grade on crop, a: transplanted rice plant” value in [13] is reported as 5 (Herbicidal ratio of 90% or more (almost completely withered)).

In the case of `CON=C(CC1CC(O)=C(c2c(C)cc(-c3ccccc3)cc2C)C1=O)C1CC1` (mixture of isomers) [9-028], the “f: beet, effect on crop grade” value in series [1] is 3 (Herbicidal ratio of 40% or higher and lower than 70%). Also, the “b (directly sowed rice plant) effect on crop grade” value in series [2] is 5 (Herbicidal ratio of 90% or more (almost completely withered)). For the same compound, the “e: wheat, effect on crop grade” value in series [3] is 4 (Herbicidal ratio of 70% or higher and lower than 90%). Also, the “Q: Galium spurium, herbicidal effect grade” value in [4] is 4 (Herbicidal ratio of 70% or higher and lower than 90%). The “D (Leptochloa chinensis) herbicidal effect grade” value in series [5] is recorded as 5 (Herbicidal ratio of 90% or more (almost completely withered)). Further, the “Effect on crop grade, g: rapeseed” value in series [6] (setting [14]) was 4 (Herbicidal ratio of 70% or higher and lower than 90%). Further, in [7] (setting [14]), the “Herbicidal effect grade, N: Amaranthus retroflexus” value (shortened to “Herbicidal effect grade, N”) is on record as 0 (Herbicidal ratio of 5% or lower (almost no effect)). For the same compound, the “C (Monochoria vaginalis) herbicidal effect grade” value in [8] is recorded as 5 (Herbicidal ratio of 90% or more (almost completely withered)). For the same compound, in [9] (setting [14]), the “Herbicidal effect grade, M: Abutilon theophrasti” value (“Herbicidal effect grade, M” below) is recorded as 0 (Herbicidal ratio of 5% or lower (almost no effect)). The “L: Apera spica-venti, herbicidal effect grade” value in [10] is given as 5 (Herbicidal ratio of 90% or more (almost completely withered)). In addition, the “Herbicidal effect grade, F: Digitaria ciliaris” value (from here on “Herbicidal effect grade, F”) in series [11] (setting [14]) is 5 (Herbicidal ratio of 90% or more (almost completely withered)). Further, the “c: corn, effect on crop grade” value in series [12] was 5 (Herbicidal ratio of 90% or more (almost completely withered)). Further, the “a (transplanted rice plant) effect on crop grade” value in series [13] was 5 (Herbicidal ratio of 90% or more (almost completely withered)).

As for `CC#Cc1cc(C)c(C2=C(O)CC(CC(=NOCCOC)C(C)C)C2=O)c(C)c1` (centres unmarked) [9-023], in [1], the “f: beet, effect on crop grade” value was 0 (Herbicidal ratio of 5% or lower (almost no effect)). The “b (directly sowed rice plant) effect on crop grade” value in series [2] is given as 5 (Herbicidal ratio of 90% or more (almost completely withered)). Besides, the “e: wheat, effect on crop grade” value in series [3] was 1 (Herbicidal ratio of 5% or higher and lower than 20%). For the same compound, the “Q: Galium spurium, herbicidal effect grade” value in series [4] is given as 0 (Herbicidal ratio of 5% or lower (almost no effect)). Besides, the “D (Leptochloa chinensis) herbicidal effect grade” value in [5] is given as 5 (Herbicidal ratio of 90% or more (almost completely withered)). The “Effect on crop grade, g: rapeseed” value in series [6] (setting [14]) is 4 (Herbicidal ratio of 70% or higher and lower than 90%). In addition, in series [7] (setting [14]), the “Herbicidal effect grade, N” value is listed as 5 (Herbicidal ratio of 90% or more (almost completely withered)). Besides, the “C (Monochoria vaginalis) herbicidal effect grade” value in series [8] was 4 (Herbicidal ratio of 70% or higher and lower than 90%). Moreover, in series [9] (setting [14]), the “Herbicidal effect grade, M” value was 0 (Herbicidal ratio of 5% or lower (almost no effect)). The “L: Apera spica-venti, herbicidal effect grade” value in [10] is recorded as 5 (Herbicidal ratio of 90% or more (almost completely withered)). The “Herbicidal effect grade, F” value in series [11] (setting [14]) is reported as 5 (Herbicidal ratio of 90% or more (almost completely withered)). The “c: corn, effect on crop grade” value in [12] is 5 (Herbicidal ratio of 90% or more (almost completely withered)). Further, in series [13], the “a (transplanted rice plant) effect on crop grade” value is reported as 5 (Herbicidal ratio of 90% or more (almost completely withered)).

In the case of `Cc1cc(-n2cc(Cl)cn2)cc(C)c1C1=C(O)CC(CC(=NOCC(F)(F)F)C(C)C)C1=O` (centres unmarked) [9-014], in series [1], the “f: beet, effect on crop grade” value is 0 (Herbicidal ratio of 5% or lower (almost no effect)). The “b (directly sowed rice plant) effect on crop grade” value in series [2] is reported as 5 (Herbicidal ratio of 90% or more (almost completely withered)). The “e: wheat, effect on crop grade” value in series [3] was 1 (Herbicidal ratio of 5% or higher and lower than 20%). Also, in series [4], the “Q: Galium spurium, herbicidal effect grade” value is 0 (Herbicidal ratio of 5% or lower (almost no effect)). Moreover, the “D (Leptochloa chinensis) herbicidal effect grade” value in series [5] is 5 (Herbicidal ratio of 90% or more (almost completely withered)). For the same compound, the “Effect on crop grade, g: rapeseed” value in series [6] (setting [14]) is reported as 0 (Herbicidal ratio of 5% or lower (almost no effect)). In addition, the “Herbicidal effect grade, N” value in series [7] (setting [14]) is listed as 0 (Herbicidal ratio of 5% or lower (almost no effect)). Further, the “C (Monochoria vaginalis) herbicidal effect grade” value in series [8] is 2 (Herbicidal ratio of 20% or higher and lower than 40%). Moreover, in [9] (setting [14]), the “Herbicidal effect grade, M” value is 0 (Herbicidal ratio of 5% or lower (almost no effect)). For the same compound, the “L: Apera spica-venti, herbicidal effect grade” value in series [10] is 3 (Herbicidal ratio of 40% or higher and lower than 70%). The “Herbicidal effect grade, F” value in [11] (setting [14]) was 4 (Herbicidal ratio of 70% or higher and lower than 90%). In addition, the “c: corn, effect on crop grade” value in series [12] is recorded as 5 (Herbicidal ratio of 90% or more (almost completely withered)). Moreover, the “a (transplanted rice plant) effect on crop grade” value in [13] is on record as 5 (Herbicidal ratio of 90% or more (almost completely withered)).

Consider `CCC(CC1CC(O)=C(c2c(C)cc(Br)cc2OC)C1=O)=NOC` (mixture of isomers) [13-001], for which the “f: beet, effect on crop grade” value in [1] was 0 (Herbicidal ratio of 5% or lower (almost no effect)). Moreover, in [2], the “b (directly sowed rice plant) effect on crop grade” value is 5 (Herbicidal ratio of 90% or more (almost completely withered)). The “e: wheat, effect on crop grade” value in [3] is given as 5 (Herbicidal ratio of 90% or more (almost completely withered)). For the same compound, the “Q: Galium spurium, herbicidal effect grade” value in series [4] is recorded as 0 (Herbicidal ratio of 5% or lower (almost no effect)). Moreover, the “D (Leptochloa chinensis) herbicidal effect grade” value in series [5] is recorded as 5 (Herbicidal ratio of 90% or more (almost completely withered)). Besides, the “g: rapeseed, effect on crop grade” value in series [6] (setting [14]) is given as 0 (Herbicidal ratio of 5% or lower (almost no effect)). Further, the “N: Amaranthus retroflexus, herbicidal effect grade” value in [7] (setting [14]) was 0 (Herbicidal ratio of 5% or lower (almost no effect)). Further, in [8], the “C (Monochoria vaginalis) herbicidal effect grade” value is recorded as 0 (Herbicidal ratio of 5% or lower (almost no effect)). Besides, the “M: Abutilon theophrasti, herbicidal effect grade” value in series [9] (setting [14]) was 0 (Herbicidal ratio of 5% or lower (almost no effect)). In addition, the “L: Apera spica-venti, herbicidal effect grade” value in [10] is given as 5 (Herbicidal ratio of 90% or more (almost completely withered)). Also, in [11] (setting [14]), the “F: Digitaria ciliaris, herbicidal effect grade” value is 5 (Herbicidal ratio of 90% or more (almost completely withered)). Besides, the “c: corn, effect on crop grade” value in series [12] is 5 (Herbicidal ratio of 90% or more (almost completely withered)). Also, the “a (transplanted rice plant) effect on crop grade” value in series [13] was 5 (Herbicidal ratio of 90% or more (almost completely withered)).

The values above are taken from US11000033B2, “Ketone or oxime compound, and herbicide” (NISSAN CHEMICAL CORPORATION, priority 2014, dated 2021).
